From patent publication US20250313593A1, “DIPEPTIDE DERIVATIVE COMPOSITION, PREPARATION METHOD THEREFOR, AND USE THEREOF” (BEIJING CONTINENT PHARMACEUTICALS CO., LTD, priority 2022, published 2025)
“Also recorded” adds a separate entry of the source.

Legend:
[1] = Stability of F573 solution before and after high-temperature sterilization; type: physicochemical; conditions: for Content / Related substances: propylene glycol/water (80%/20%), pH 4.0-5.0
Description: 1.2 Investigation of Stability of F573 Injection
F573 was dissolved in the solution of propylene glycol/water (80%/20%; pH was adjusted to 4.0-5.0), and the resulting mixture was sterilized at a high temperature of 120° C. for 15 min and then examined (the results are shown in Table A-2 below).

[2] = Screening injection solvents for F573 (solvent effects, dissolution behavior); type: physicochemical; conditions: 2 ml:30 mg F573
Text: 1.1 for the Purpose of Preparing F573 Injection, Screening Injection Solvents

liver failure = conditions: background; CN201110025509.8 and CN201110025516.8; cited from earlier work
cells = conditions: background; cited from earlier work
[3] = After sterilization at 120° C. for 15 min
[4] = after the high-temperature sterilization

- Content [1, 3]: 8.82 mg/mL
- Related substances [1, 3]: 47.22%
- Content ([1]; Before sterilization): 16.08 mg/mL
- Related substances ([1]; Before sterilization): 1.80%
- Increase in the related substances [1, 4]: about 50%
- Reduction in the F573 content [1, 4]: about 50%
- Stability in aqueous solution ([1]; aqueous solution, moist heat sterilization): poor stability
- Dissolution behavior ([2]; Ethanol/water (10%/90%)): Turbid
- Dissolution behavior ([2]; Oil for injection, Vegetable oil): Turbid
- Dissolution behavior ([2]; Propylene glycol/water (50%/50%)): Turbid
- Dissolution behavior ([2]; Water for injection, adjusting pH to 2.0-2.5): Turbid
- Dissolution behavior ([2]; Water for injection, adjusting pH to 4.0-5.0): Turbid
SMILES: CC(C)[C@H](NC(=O)OCc1ccccc1)C(=O)NC(CC(=O)O)C(=O)CF (stereo partly drawn) [F573, 3-(2-benzyloxycarbonylamino-3-methyl-butanamido)-5-fluoro-4-oxo-pentanoic acid]
- Dissolution behavior ([2]; Propylene glycol/water (80%/20%), adjusting pH to 4.0-5.0): completely dissolved; also recorded: Clarified
- Efficacy on liver failure (liver failure): remarkable efficacy on liver failure
- Toxicity on cells (cells): no significant toxicity on cells
